Here are results for one compound from patent publication US6916832B2, “Chromeno[4,3,2-de]isoquinolines as potent dopamine receptor ligands” (University of North Carolina at Chapel Hill, priority 1999, dated 2005).

Experiment [1] deals with T1, rat striatal D1 receptors (Rattus norvegicus, UniProt P18901).
T1 construct: Frozen rat striata was homogenized by seven manual strokes; from tissue; host or cells: rat striatum
Nature of the experiment: Radioreceptor binding, rat striatal D1 receptors labeled with [3H]SCH23390. The method, then: FIG. 1 is a graphic representation of the affinity of dinoxyline (circles), dinapsoline (diamonds) and (+)-SCH23390 (solid circles) for striatal D1 receptors. Rat striatal D1 receptors were labeled with [^3H]SCH23390 (1), and unlabeled dinoxyline, dinapsoline, or (+)-SCH23390 was added to determine the specific binding of each compound to the D1 receptor.
Frozen rat striata was homogenized by seven manual strokes in a Wheaton Teflon-glass homogenizer in 8 ml ice cold 50 mM HEPES buffer with 4.0 mM MgCl2, (pH 7.4). The tissue was centrifuged at 27,000×g for 10 min, the supernatant was discarded, and the pellet was homogenized (5 strokes) and resuspended in ice cold buffer and centrifuged again. The final pellet was suspended at a concentration of approximately 2.0 mg wet weight/ml. The amount of tissue added to each assay tube was 1.0 mg, in a final assay volume of 1.0 ml. D1 receptors were labeled with [^3H] SCH23390 (0.30 nM). D2 receptors were labeled with [^3H] spiperone (0.07 nM); unlabeled ketanserin (50 nM) was added to mask binding to 5HT2 sites. Total binding was defined as radioligand bound in the absence of any competing drug. Nonspecific binding was estimated by adding unlabeled SCH23390 (1 μM) or unlabeled chlorpromazine ([…]) for D1 and D2 receptor binding assays, respectively. Triplicate determinations were made for each drug concentration in each assay. Assay tubes were incubated at 37° C. for 15 minutes. Binding was terminated by filtering with ice cold buffer on a Skatron 12 well cell harvester (Skatron, Inc., Sterling, Va.) using glass fiber filter mats (Skatron no. 7034). Filters were allowed to dry and 2.0 ml of Optiphase HI-SAF II scintillation fluid was added. After shaking for 30 minutes, radioactivity was determined on a LKB Wallac 1219 RackBeta liquid scintillation counter (Wallac, Gaithersburg, Md.). Tissue protein levels were estimated using the BCA protein assay reagent.

The target of experiment [2] is T2, D1 receptors (Rattus norvegicus, UniProt P18901).
T2 construct: Frozen rat striata was homogenized by seven manual strokes; from tissue; host or cells: rat striatum
The experiment in a line: cAMP production in rat striatum homogenate. Type of experiment: biochemical. The method, then: Frozen striatal tissue (ca. 40 mg) was homogenized in 4 ml of buffer (5 mM Hepes, 2 mM EGTA, pH 7.5) using 10 strokes in a Wheaton Teflon-glass homogenizer. Four ml of 50 mM Hepes with 2 mM EGTA buffer (pH 7.5) was added, and the tissue was homogenized by an additional 3 strokes. A 20 μl aliquot of this tissue homogenate was added to a prepared reaction. The reaction mixture consisted of 100 mM Hepes (pH 7.4), 100 mM NaCl, 4 mM MgCl2, 2 mM EDTA, 500 μM isobutyl methylxanthine (IBMX), 0.01% ascorbic acid, 10 μM pargyline, 2 mM ATP, 5 μM GTP, 20 mM phosphocreatine, 5 units of creatine phosphokinase (CPK), and selected concentrations of DA. The final reaction volume was 100 μl. Basal cAMP activity was determined by incubation of tissue in the reaction mixture with no drug added. Tubes were assayed in duplicate. After a 15 min incubation at 30° C., the reaction was stopped with the addition of 500 μl of 0.1 N HCl. Tubes were vortexed briefly, and then spun in a BHG Hermle Z 230 M microcentrifuge for five min at 15,000×g to eliminate large particles. The concentration of cAMP in each sample was determined with an RIA of acetylated cAMP, modified from that previously described (Harper and Brooker, 1975). Iodination of cAMP was performed using a method described previously (Patel and Linden, 1988). Assay buffer was 50 mM sodium acetate buffer with 0.1% sodium azide (pH 4.75). Standard curves of cAMP were prepared in buffer at concentrations of 2 to 500 fmoles/assay tube. To improve assay sensitivity, all samples and standards were acetylated with 10 μl of a 2:1 solution of triethylamine:acetic anhydride. Samples were assayed in duplicate. Each assay tube contained 100 μl of diluted sample, 100 μl of primary antibody (sheep, anti-cAMP, 1:100,000 dilution with 1% BSA in buffer) and 100 μl of [^125I]-cAMP (50,000 dpm/100 μl of buffer); total assay volume was 300 μl. Tubes were vortexed and stored at 4° C. overnight (approx. 18 hr). Antibody-bound radioactivity was then separated by the addition of 25 μL of BioMag rabbit, anti-goat IgG (Advanced Magnetics, Cambridge Mass.), followed by vortexing and further incubation at 4° C. for 1 hr. To these samples 1 ml of 12% polyethylene glycol/50 mM sodium acetate buffer (pH 6.75) was added and all tubes were centrifuged at 1700×g for 10 min. Supernatants were aspirated and radioactivity in the resulting pellet was determined using an LKB Wallac gamma counter (Gaithersburg, Md.). Data were calculated for each sample, and expressed initially as pmol/mg/min cAMP. […] Normalized dose-response curves were analyzed by nonlinear regression using an algorithm for sigmoid curves in the curvefitting program InPlot (Graphpad, Inc.; San Francisco, Calif.). […]

The test system of experiment [3] is rat unilateral 6-OHDA-lesion model. The experiment in a line: Rat unilateral 6-OHDA-lesion model, contralateral rotation. Type of experiment: in vivo. From the text: (§1) Accordingly dinoxyline and its derivatives have potential clinical utility in Parkinson's Disease and in other conditions where perturbation of dopamine receptors may be therapeutic.
The test system of experiment [4] is marmosets having moderately-severe MPTP-induced dopamine denervation. The experiment in a line: Marmosets with moderately-severe MPTP-induced dopamine denervation. Type of experiment: in vivo, marmoset. The following applies: preliminary studies.
From the text: as §1

T1 sequence (P18901 whole entry): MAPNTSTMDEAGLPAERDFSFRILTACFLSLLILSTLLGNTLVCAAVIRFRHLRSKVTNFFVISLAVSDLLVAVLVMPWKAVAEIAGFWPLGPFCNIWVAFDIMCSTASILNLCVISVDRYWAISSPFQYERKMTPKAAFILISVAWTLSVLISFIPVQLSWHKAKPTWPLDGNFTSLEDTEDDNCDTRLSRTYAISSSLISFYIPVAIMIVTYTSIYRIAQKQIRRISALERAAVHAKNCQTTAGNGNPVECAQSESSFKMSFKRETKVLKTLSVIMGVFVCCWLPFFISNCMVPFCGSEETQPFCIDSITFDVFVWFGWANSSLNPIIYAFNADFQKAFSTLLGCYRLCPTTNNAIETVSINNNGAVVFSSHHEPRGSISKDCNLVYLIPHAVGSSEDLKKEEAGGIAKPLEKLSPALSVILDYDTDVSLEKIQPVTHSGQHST
T2 sequence (P18901 whole entry): as above

Broadly, the EC50 is the concentration at which the effect is half-maximal. Turning to `Br.Oc1ccc2c(c1O)Oc1cccc3c1C2CNC3` (racemic) [dinoxyline, (±)-8,9-dihydroxy-1,2,3,11b-tetrahydrochromeno[4,3,2-de]isoquinoline hydrobromide], in experiment [1] ([3H]SCH23390 label, rat striatum, read-out: K0.5 for rat striatal D1 receptors), the Ki was < 5 nM. For the same compound, the “affinity for dopamine D1 receptors labeled with [3H]SCH23390 (in words)” value in experiment [1] (compared with dihydrexidine) was “high affinity”. Also, in experiment [1] (competition at D1 receptors labeled with [3H]SCH23390, shallow curve consistent with agonist properties), the “nH of competition curve” value is “ca. 0.7”. The “agonist intrinsic activity at D1 receptors” value in experiment [2] (rat striatum / rat striatal membranes, relative to dopamine, hydrobromide) was “full agonist activity”. Further, in experiment [2] (rat striatum, read-out: EC50 in stimulating synthesis of cAMP via D1 receptors), the EC50 was < 30 nM. Besides, in experiment [3] (same route (subcutaneous)), the “duration of action relative to a similar dose of dihydrexidine” value is “more than twice”. In experiment [3] (single subcutaneous dose), the contralateral rotation result is “significant rotation”. The “antiparkinson effects (locomotion, arousal, Parkinson signs)” value in experiment [4] is given as “significant antiparkinson effects”.
